Results on 9 compounds are retold here after patent US20140065103A1 (VERTEX PHARMACEUTICALS INCORPORATED, priority 2010, published 2014).

Data set [1] relates to HCV sub-genomic replicon of genotype 1a in replicon cell line W11.8. The experiment in a line: microbe, parasite or virus in culture. It is filed as cell-based, Hepatitis C virus. The following applies: read-out: HCV-Replicon-ELISA-1a IC50. On the technique in general: In antiviral work, replicon cells carry a viral genome segment that copies itself.
Data set [2] concerns Huh-7 ET, Molt-4, DU-145, Hep-G2 and SH-SY5Y cells. The experiment in a line: [3H]Thymidine incorporation assay (cytotoxicity, CC50). The following applies: [3H]thymidine incorporation; cell line not given.
For data set [3], the system named is HCV replicon (genotype 1b) in Huh7 hepatoma cell line ET. The experiment in a line: microbe, parasite or virus in culture. The following applies: read-out: HCV-Replicon-1b_IC50. Format: cell-based, Hepatitis C virus.
A short description of data set [4]: [3H]Thymidine incorporation assay (cytotoxicity, CC50). As to conditions: human. In general terms: Dividing cells build labelled thymidine or BrdU into new DNA.

The term CC50 denotes the concentration giving 50% cytotoxicity. Read a low CC50 as greater toxicity to the cells.

Read-outs that look alike come from different tables or passages of the source.

With `CC(C)C#Cc1cc(N(C(=O)[C@H]2CC[C@H](C)CC2)[C@H]2CC[C@H](O)CC2)c(C(=O)O)s1` [Compound 4, 5-(3-methylbut-1-ynyl)-3-[(4-trans-hydroxycyclohexyl)-(4-trans-methylcyclohexanecarbonyl)amino]thiophene-2-carboxylic acid], the IC50 in data set [1] and in data set [3] was below 100 nM throughout. This compound yielded a CC50 in data set [2] of 10 to 100 µM.
With `Cc1ccc(C(=O)N(c2cc(C#CC(C)(C)C)sc2C(=O)O)[C@H]2CC[C@H](O)CC2)c(C)c1` [Compound 83, 3-[(2,4-Dimethyl-benzoyl)-(trans-4-hydroxy-cyclohexyl)-amino]-5-(3,3-dimethyl-but-1-ynyl)-thiophene-2-carboxylic acid], the IC50 in data set [3] (Hepatitis C virus, Huh-7, 96 h) lay within 100 to 1000 nM.
The same measure, in the same setting: as for `Cc1ccc(C(=O)N(c2cc(C#CC(C)(C)C)sc2C(=O)O)[C@H]2CC[C@H](O)CC2)cc1F` [Compound 93, 5-(3,3-Dimethyl-but-1-ynyl)-3-[(3-fluoro-4-methyl-benzoyl)-(trans-4-hydroxy-cyclohexyl)-amino]thiophene-2-carboxylic acid], the figure is 100 to 1000 nM.
`CC(C)C#Cc1cc(N(C(=O)[C@H]2CC[C@H](C)CC2)C2CCN(C(=O)CCCCCN)CC2)c(C(=O)O)s1` [Compound 95, 3-((trans-4-Methylcyclohexanecarbonyl)-(1-(6-amino-hexanoyl)-piperidin-4-yl)amino)-5-(3-methylbut-1-ynyl)thiophene-2-carboxylic acid] returned a cytotoxic concentration (CC50) at 72 h in data set [4] of 10 to 100 µM. Also, the IC50 in data set [3] (Hepatitis C virus, Huh-7, 96 h) was in the range of 100 to 1000 nM.
“Methyl-5-(3,3-dimethylbut-1-yn-1-yl)-3-(trans-4-methyl-N-(cis-3-((dimethylamino)methyl)cyclobutyl)cyclohexanecarboxamido)thiophene-2 carboxylate [Compound 65]”: the IC50 in data set [1] and in data set [3] was below 100 nM in each case. In data set [2], this compound returned a CC50 of 10 to 100 µM.
The compound `CC(C)(C)C#Cc1cc(N(C(=O)c2ccc(Cl)cc2F)[C@H]2CC[C@H](O)CC2)c(C(=O)O)s1` [Compound 91, 3-[(4-Chloro-2-fluoro-benzoyl)-(trans-4-hydroxy-cyclohexyl)-amino]-5-(3,3-dimethyl-but-1-ynyl)-thiophene-2-carboxylic acid] gave a CC50 at 72 h in data set [4] of 10 to 100 µM. Also, the IC50 in data set [3] (Hepatitis C virus, Huh-7, 96 h) fell in the range of 100 to 1000 nM.
Take `CC(C)(C)C#Cc1cc(N(C(=O)[C@H]2CC[C@H](C)CC2)[C@H]2CC[C@H](OC3CC3)CC2)c(C(=O)O)s1` [Compound 38, 5-(3,3-Dimethylbut-1-yn-1-yl)-3-((N-4-trans-cyclopropoxycyclohexyl)-4-trans-methylcyclohexanecarboxamido)thiophene-2-carboxylic acid]: the figures for the IC50 in data set [1] and in data set [3] were 100 to 1000 nM and below 100 nM, respectively. Moreover, the CC50 in data set [2] was 10 to 100 µM.
In the case of `CCO[C@H]1CC[C@H](N(c2cc(C#CC(C)(C)C)sc2C(=O)O)C(=O)[C@H]2CC[C@H](C)CC2)CC1` [Compound 35, 5-(3,3-Dimethylbut-1-yn-1-yl)-3-((N-4-trans-ethoxycyclohexyl)-4-trans-methylcyclohexanecarboxamido)thiophene-2-carboxylic acid], the values for the IC50 in data set [1] and in data set [3] were 100 to 1000 nM and below 100 nM, respectively. In data set [2], this compound displayed a CC50 of 10 to 100 µM.
As for `COCCN(c1cc(C#CC(C)(C)C)sc1C(=O)O)C(=O)[C@H]1CC[C@H](C)CC1` [Compound 29, 5-(3,3-Dimethylbut-1-ynyl)-3-(N-(2-methoxyethyl)-4-trans-methylcyclohexanecarboxamido)thiophene-2-carboxylic acid], in data set [1], the IC50 was below 100 nM. The compound further registered a CC50 in data set [2] of 10 to 100 µM.
